Values of other authors, collected in US10092644B2, “Use of fluorinated cyclic dinucleotides as oral vaccine adjuvants” (BROCK UNIVERSITY, priority 2013, dated 2018).

Tested on: S. penuemoniae pneumolysin toxid (PdB) or pneumococal surface protection (PspA)
Details: mice, interperitoneally, PdB or PspA adjuvanted with c-di-GMP (Chen et al. 2010; Ogunniyi et al. 2008); cited from earlier work

## Nc1nc2c(ncn2C2OC3COP(=O)(O)OC4C(COP(=O)(O)OC3C2O)OC(n2cnc3c(=O)[nH]c(N)nc32)C4O)c(=O)[nH]1 (stereo not shown) [c-di-GMP, 3′,5′-cyclic diguanylic acid]
  antigen-specific antibody response: enhanced
